Data on 14 molecules can be found in patent US11512042B2, “Enamine compounds for absorbance of electromagnetic energy” (Commonwealth Scientific and Industrial Research Organisation, priority 2015, dated 2022).

Format in all cases: physicochemical
The nature of data set [1]: PMMA film in QUV Weatherometer. Particulars: type A bulbs, 70° C. 8 hours then dark humid 50° C. 4 h. As for the experimental part:
In order to gauge longer term photostability, the PMMA film samples were evaluated in a QUV Weatherometer using type A bulbs with solar irradiance at 70° C. for 8 hours followed by heating in the dark under a humid atmosphere at 50° C. for 4 h. The film was then sandwiched between 2 glass slides to prevent deformation and irradiated. The samples were evaluated by a visual comparison and measurement of transmittance spectra. […] This clearly indicates the suitability of compounds of the first aspect to incorporation into polymeric matrices and films. The relevant transmission spectra are shown in FIG. 11 (142), FIG. 12 (143), FIG. 13 (164), FIG. 14 (213) and FIG. 15 (215) wherein in all of these figures the lower plateau line represents the result following radiation and the upper line prior to irradiation.

Data set [2] in a line: Photostability protocol: thin film irradiated with xenon arc lamp. Particulars: 1 hour xenon arc lamp; for Photostability: ratio of absorbance at λmax irradiated vs unirradiated, ^a = average of multiple measurements. In outline:
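A 3% solution in EtOH/triglyceride/alkyl benzoate is dried on glass slides into a liquid film of 1.5 mg compound. Films are irradiated 1 h with a Pyrex-filtered 150 W xenon arc lamp (about 100 MED, below 30° C). Washings are read by UV; stability is absorbance at λmax relative to unirradiated film.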

Data set [3] is described as follows: Lens casting in NK ester lens formulation. Particulars: AIBN initiator, cured 70° C. 18 hours, 0.1 wt %. As for the experimental part:
(§1) Two lens formulations were used. The first (CR-39) was composed of Di(ethylene glycol) bis(allylcarbonate) with 3% wt benzoyl peroxide as initiator. The second lens formulation (NK) was made up of 4 parts NK Ester BPE 100N (Ethoxylated Bisphenol A dimethacrylate) to 1 part NK Ester 9G (PEG 400 dimethacrylate) with 0.4 wt % AIBN as initiator.
(§2) Once the glue had dried the lens matrix (3 g of the lens matrix was treated with 3 mg of absorber, 0.1 wt % and stirred until dissolution complete. 3 g of the matrix was sufficient to prepare 3-4 lenses) was added via pipette to the interior until a convex meniscus was formed at the top of the O-ring. The mixture was then left to settle for 15 minutes during which time any bubbles formed were dispersed. A second microscope slide was then slowly rolled on top of the first to form a seal and expel any air. Taking care to maintain pressure the lens mould was then clamped at the sides with two “Bulldog” clips and cured in an oven at 70° C. for 18 hours. Once the curing process was complete the two microscope slides were separated and the lens removed from the O-ring before washing with acetone and drying/polishing with a soft tissue. The lenses thus formed were approximately 2 mm thick and 15 mm in diameter.

Data set [4] is described as follows: Lens casting in CR-39 lens formulation. Particulars: benzoyl peroxide initiator, cured 70° C. 18 hours, 0.1 wt %. The protocol: as §1, §2
Of particular interest are compounds 163 and 164 which show an increase in λmax on constraining only the nitrogen substituent in a ring i.e. not the double bond. […] Additionally the dimethyl analogue 213 (structure in table 14) was also evaluated.

The nature of data set [5]: UV absorbance spectrum in solution (λmax, λcrit, extinction coefficients). Particulars: for λcrit: critical wavelength; for E (1%, 1 cm): mass extinction coefficient; for ε: molar extinction coefficient, in M-1 cm-1 (unit assumed). The method, boiled down:
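Spectra taken on 0.001% solutions in methanol, 10 mm path. Breakthrough is the wavelength where transmittance rises above 1%; steepness is the nm span over which transmittance goes from 1 to 80%.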

Data set [6] in a line: % transmission spectrum of 0.1% solution (breakthrough, steepness). Particulars: for Steepness: distance in nm over which transmittance increases from 1 to 80%; for Breakthrough (1% T at 0.1%): value in nm where transmittance increases beyond 1%, 0.1% solution. The method, boiled down: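 Transmission was recorded for 0.1% methanol solutions in a 2 mm cuvette. Breakthrough is the wavelength (nm) at which transmittance exceeds 1%; steepness is the nm span over which transmittance rises from 1 to 80%. Some values are averages of multiple measurements.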

Data set [7] in a line: Solubility in the photostability test solution. Particulars: printed in the photostability (or steepness) column. An excerpt:
The properties of these compounds are shown in table 9 with comparator compounds. […] In both cases low solubility meant that photostability could not be measured. This would not preclude use of the compounds in many applications where solubility is not at issue.
In one embodiment, the compounds may provide for improved solubility or stability in standard compositions, including sunscreen compositions. Such solubility may be measured by generating, for example, a 3% solution of the relevant compound in 2:1:1 EtOH:capric/caprylic triglyceride:C12-C15 alkyl benzoate.
1 mL of a 3% solution of the test compound (30 mg of test compound in 1 mL solvent) was prepared in a solvent mix made up of 50% EtOH and 25% capric/caprylic triglyceride and 25% C12-C15 alkyl benzoate. 50 μL of this solution (containing 1.5 mg of test compound) was added carefully to the centre of a glass microscope slide and the volatile components left to evaporate in the dark for at least 3 hours to give a liquid film. The prepared films were then exposed for 1 hour to an Eimac 150 W xenon arc lamp filtered through Pyrex (15 Amp supply current, samples 19 cm from the lamp) previously allowed to warm up for 15 minutes prior to sample exposure. […] One hour's exposure represented a calculated radiation dose (using meter) of approximately 100 MED.

Several values for one entry are separate records, joined by “and”; a condition that tells them apart may be missing. Equal entries are not always repeated. Entries after “also recorded” stand apart in the source; their conditions may differ.

Turning to `CCN(/C=C(\C(=O)C(F)(F)F)c1ccccc1)c1ccccc1` [Compound 142, 4-(ethyl(phenyl)amino)-1,1,1-trifluoro-3-phenylbut-3-en-2-one], the “Longer term photostability in PMMA film” value in data set [1] is “little sign of decomposition after irradiation”. In data set [2], the “Photostability (% remains)” value was 91% and 99%; the Photostability was found to be 99%. For the same molecule, in data set [3], the “Stability to lens casting conditions” value is on record as “very little if any decomposition”. Further, the “Stability to lens casting conditions” value in data set [4] is “stable enough for such incorporation; also recorded: very little if any decomposition”.
Consider `CC1(C)CN(/C=C(\C(=O)C(F)(F)F)c2ccccc2)c2ccccc21` [Compound 213], for which the “Longer term photostability in PMMA film” value in data set [1] is “little sign of decomposition after irradiation”. In data set [5], the λmax is 366 nm; the λcrit is listed as 389 nm; the “E (1%, 1 cm)” value is on record as 860; the ε was determined as 29690. The “Stability to lens casting conditions” value in data set [4] is reported as “stable enough for such incorporation; also recorded: good stability to the lens curing conditions”. In data set [6], the Steepness is 22 nm and the “Breakthrough (1% T at 0.1%)” value turned out to be 413 nm.
`CCCCC(CC)COC(=O)c1ccc2c(c1)CCN2/C=C(\C(=O)C(F)(F)F)c1ccccc1` (centres unmarked) [Compound 215]: the “Longer term photostability in PMMA film” value in data set [1] is listed as “little sign of decomposition after irradiation”. Moreover, the “Photostability (% remains)” value in data set [2] was 85%. In data set [5], the λmax is given as 374 nm; the λcrit is given as 391 nm; the “E (1%, 1 cm)” value was 1067; the ε was determined as 50515.
`N#CCC(=O)/C(=C\N1CCc2ccccc21)c1ccccc1` [Compound 249]: in data set [5], the λmax is 361 nm; the λcrit stood at 361 nm; the “E (1%, 1 cm)” value came to 1089; the ε came to 31385. Moreover, in data set [7], the “Solubility for photostability measurement” value is given as “Not soluble”. Further, the “Breakthrough (1% T at 0.1%)” value in data set [6] turned out to be 405 nm.
`COC(=O)c1ccc2c(c1)CCN2C=C(C(=O)C(C)(C)C)c1ccc(C(C)(C)C)cc1` [Compound 296]: the Photostability in data set [2] was 73%. Further, in data set [5], the λmax was determined as 368 nm; the λcrit is 384 nm; the “E (1%, 1 cm)” value is 1213; the ε is 50838. Moreover, in data set [6], the Steepness is 16 nm and the “Breakthrough (1% T at 0.1%)” value stood at 401 nm.
Regarding `CCCCC(CC)COC(=O)c1ccc2c(c1)CCN2C=C(C(=O)C(C)(C)C)c1ccccc1` (centres unmarked) [Compound 300], in data set [2], the Photostability is 81% and 83%. Also, in data set [5], the λmax is 367 nm; the λcrit was 384 nm; the “E (1%, 1 cm)” value came to 1189; the ε amounted to 54826. For the same molecule, in data set [6], the Steepness turned out to be 16 nm and the “Breakthrough (1% T at 0.1%)” value is recorded as 400 nm.
For the molecule `COC(=O)c1ccc2c(c1)CCN2/C=C(/C(=O)c1ccccc1O[Si](C)(C)C(C)(C)C)c1ccccc1` [Compound 302], the Photostability in data set [2] stood at 45%. Also, in data set [5], the λmax was determined as 369 nm; the λcrit stood at 384 nm; the “E (1%, 1 cm)” value came to 1089; the ε amounted to 55852. Further, in data set [6], the Steepness was 26 nm and the “Breakthrough (1% T at 0.1%)” value stood at 01 nm.
As to `CCCCC(CC)COC(=O)c1ccc2c(c1)CCN2C=C(C(=O)c1c(C)cc(C)cc1C)c1ccccc1` (centres unmarked) [Compound 303], the Photostability in data set [2] is 94% and 93%. Also, in data set [5], the λmax was determined as 369 nm; the λcrit turned out to be 382 nm; the “E (1%, 1 cm)” value is 1164; the ε was found to be 60921. In data set [6], the Steepness came to 24 nm and the “Breakthrough (1% T at 0.1%)” value is on record as 399 nm.
As to `CC(C)(C)C(=O)/C(=C/N1CCc2cc(C(=O)OCCCOC(=O)c3ccc4c(c3)CCN4/C=C(/C(=O)C(C)(C)C)c3ccccc3)ccc21)c1ccccc1` [Compound 304], the Photostability in data set [2] is 90% and 92%. In data set [5], the λmax is 365 nm; the λcrit is 384 nm; the “E (1%, 1 cm)” value is listed as 1023; the ε came out at 75535. In addition, in data set [6], the Steepness was 19 nm and the “Breakthrough (1% T at 0.1%)” value is 401 nm.
For the molecule `COC(=O)c1ccc2c(c1)CCN2/C=C(/C(=O)C(=O)N1CCc2ccccc21)c1ccccc1` [Compound 305], in data set [2], the Photostability was 80% and 75%. In addition, in data set [5], the λmax came to 375 nm; the λcrit worked out at 391 nm; the “E (1%, 1 cm)” value amounted to 1078; the ε is 48709. Besides, in data set [6], the Steepness is listed as 23 nm and the “Breakthrough (1% T at 0.1%)” value is 417 nm.
Take `Cc1cc(C)c(C(=O)/C(=C\N2CCc3cc(C(=O)OCCCOC(=O)c4ccc5c(c4)CCN5/C=C(/C(=O)c4c(C)cc(C)cc4C)c4ccccc4)ccc32)c2ccccc2)c(C)c1` [Compound 307]: in data set [2], the Photostability was 98, 98%. In data set [5], the λmax is recorded as 370 nm; the λcrit was 384 nm; the “E (1%, 1 cm)” value is reported as 1251; the ε is 107885. In addition, in data set [6], the Steepness amounted to 22 nm and the “Breakthrough (1% T at 0.1%)” value is recorded as 402 nm.
`CCCCC(CC)COC(=O)c1ccc2c(c1)CCN2/C=C(/C(=O)c1ccncc1)c1ccccc1` (centres unmarked) [Compound 308]: in data set [2], the Photostability was found to be 79%. Besides, in data set [5], the λmax is 374 nm; the λcrit is recorded as 391 nm; the “E (1%, 1 cm)” value is 796; the ε is 38378. Besides, in data set [6], the Steepness was found to be 41 nm and the “Breakthrough (1% T at 0.1%)” value was found to be 431 nm.
On to `CCCCC(CC)COC(=O)c1ccc2c(c1)CCN2/C=C(/C(=O)C(C)(C)C)c1ccc(Br)cc1` (centres unmarked) [Compound 309], for which, in data set [2], the Photostability was determined as 80%. For the same molecule, in data set [5], the λmax came out at 366 nm; the λcrit is 384 nm; the “E (1%, 1 cm)” value was 780; the ε is given as 42050. In addition, in data set [6], the Steepness came to 19 nm and the “Breakthrough (1% T at 0.1%)” value is 397 nm.
Take `CCCCC(CC)COC(=O)c1ccc2c(c1)CCN2/C=C(/C(=O)C(C)(C)C)c1ccc(C#N)cc1` (centres unmarked) [Compound 310]: the Photostability in data set [2] is 78% and 81%. Further, in data set [5], the λmax is reported as 368 nm; the λcrit is recorded as 385 nm; the “E (1%, 1 cm)” value was found to be 1039; the ε is listed as 50502. Further, in data set [6], the Steepness is reported as 22 nm and the “Breakthrough (1% T at 0.1%)” value is recorded as 402 nm.
